Assay results as given in patent EP1070454A1, “TRANSGENIC ANIMAL SHOWING VASCULAR TISSUE-SPECIFIC EXPRESSION OF ANGIOTENSIN II2 RECEPTOR” (SUNTORY LIMITED, priority 1999, dated 2000).

Experiments:
[1] = test system: cGMP production in isolated aorta; assay: Angiotensin II-induced cGMP production in isolated aorta (radioimmunoassay); assay type: cell-based, mice; conditions: for inhibition of the increase of cGMP production: increase caused by AngII + CV11974; for Angiotensin II-induced cGMP production in isolated aorta: mean ± SE
Text: Then, AngII-induced cGMP production in isolated aortic vessels was compared between transgenic and wild-type mice in order to examine whether or not vasodilator action of AngII is mediated by cGMP. After abdominal incision of each mouse, the abdominal aorta was isolated and the aortic extract homogenized by sonication in ethanol was dried in nitrogen and treated with an acetylation reagent (acetic anhydride : triethylamine = 1:2) and then assayed for cGMP level by radioimmunoassay using an anti cGMP antibody (Table 3). […]

kininogenase = assay: Angiotensin II-induced kininogenase activity in isolated aorta (radioimmunoassay); assay type: biochemical, mice; conditions: for inhibition of the increase of kininogenase activity: increase caused by AngII + CV11974; for Angiotensin II-induced kininogenase activity in isolated aorta: mean ± SE
Description: Then, the activity of kininogenase, which is an enzyme for producing bradykinin from kinonogen, was compared between transgenic and wild-type mice in isolated aortic vessels. After abdominal incision of each mouse, the abdominal aorta was isolated and the aortic extract homogenized in the presence of 0.1 M phosphate buffer (0.2% bacitracin, 3 mM O-phenanthroline, 30 mM EDTA-Na2) containing a protease inhibitor was dried in nitrogen under 90% ethanol. The dried extract was solubilized in a buffer containing an angiotensin-converting enzyme inhibitor and tested for kininogenase activity by radioimmunoassay of […] produced from bovine kininogen as a substrate (Table 4).

isolated aorta = assay: Angiotensin II-induced contraction of isolated aorta (rings in myograph); assay type: cell-based, mice; conditions: for Angiotensin II-induced vasoconstriction: isolated abdominal aorta rings, mean ± SE
Description: AngII-induced contraction of isolated aortic vessels was compared between transgenic and wild-type mice. After abdominal incision of each mouse, the abdominal aorta was isolated and cut into rings, which were then suspended under a constant tension of 0.8 g in a myograph. Change of vascular tension after addition of AngII was recorded under perfusion with Tyrode's solution (137 mmol/L NaCl, 2.7 mmol/L KCl, 1.8 mmol/L CaCl2, 1.1 mmol/L MgCl2, 0.42 mmol/L NaH2PO4, 12 mmol/L NaHCO3 and 5.7 mmol/L glucose, pH 7.4) (Table 2). AngII-induced contraction of isolated aorta increased by about 24% in AT2-TG mice in the presence of an AT2 receptor inhibitor (PD123319, 1-[[4-(dimethylamino)-3-methylphenyl]methyl]-5-(diphenylacetyl)-4,5,6,7-tetrahydro-1H-imidazo[4,5-c]pyridine-6-carboxylic acid ditrifluoroacetate monohydrate available from PARKE-DAVIS, Ann Arbor, Michigan) as compared with the contraction in its absence.

[2] = Blood pressure change after continuous administration of angiotensin II (tail-cuff method); assay type: in vivo, mice; conditions: for Average blood pressure under administration of angiotensin II: AngII 0.7 mg/day/kg via osmotic pump, mean ± SE
Description: Change of average awaking blood pressure induced by chronic administration of angiotensin II (AngII) was compared between transgenic and wild-type mice. AngII (0.7 mg/day/kg) was chronically administered via an osmotic pump embedded in the back of each mouse, and the blood pressure of the mouse was measured at the tail by the tail-cuff method (Table 1). […]

[3] = AT2-TG mice, in the presence of AngII + CV11974 (AT2 receptor stimulation)
[4] = wild-type mice, in the presence of AngII + CV11974 (AT2 receptor stimulation)

## CCOc1nc2cccc(C(=O)O)c2n1Cc1ccc(-c2ccccc2-c2nnn[nH]2)cc1 (racemic) [CV11974]
[1]; [3]
  increase of amount of cGMP produced in isolated aorta: 105%
[1]; [4]
  change of amount of cGMP produced in isolated aorta: did not change
kininogenase; [3]
  increase of kininogenase activity in isolated aorta: 150%
kininogenase; [4]
  change of kininogenase activity in isolated aorta: did not change

## COC(=O)[C@@H](N)CCCNC(=N)N[N+](=O)[O-] [L-NAME]
[1]; AT2-TG mice
  inhibition of the increase of cGMP production: completely inhibited
kininogenase; AT2-TG mice
  inhibition of the increase of kininogenase activity: completely inhibited

## Cc1cc(Cn2cnc3c2CC(C(=O)O)N(C(=O)C(c2ccccc2)c2ccccc2)C3)ccc1N(C)C.O.O=C(O)C(F)(F)F.O=C(O)C(F)(F)F (stereo not shown) [PD123319, 1-[[4-(dimethylamino)-3-methylphenyl]methyl]-5-(diphenylacetyl)-4,5,6,7-tetrahydro-1H-imidazo[4,5-c]pyridine-6-carboxylic acid ditrifluoroacetate monohydrate]
Isolated aorta; AT2-TG mice, in the presence of PD123319 compared with its absence
  increase of AngII-induced contraction of isolated aorta: about 24%
Isolated aorta; AT2-TG mice, with PD123319, relative to its absence
  Angiotensin II-induced vasoconstriction: 124±2.1 % of control
Isolated aorta; Wild-type mice, with PD123319, relative to its absence
  Angiotensin II-induced vasoconstriction: 98±1.1 % of control
Isolated aorta; wild-type mice, in the presence of PD123319
  change of AngII-induced contraction: no contraction change

## Angiotensin II [AngII, vasopressor whose action is mediated through receptor subtypes AT1 and AT2]
Isolated aorta; AT2-TG mice, without or with PD123319
  Angiotensin II-induced vasoconstriction: 100±0.2 % of control
Isolated aorta; Wild-type mice, without or with PD123319
  Angiotensin II-induced vasoconstriction: 100±0.7 % of control
[1]; AT2-TG mice
  Angiotensin II-induced cGMP production in isolated aorta: 330±41 fmol/gwt
[1]; Wild-type mice
  Angiotensin II-induced cGMP production in isolated aorta: 328±14 fmol/gwt
kininogenase; AT2-TG mice
  Angiotensin II-induced kininogenase activity in isolated aorta: 0.76±0.07 ng kinin/mg/h
kininogenase; Wild-type mice
  Angiotensin II-induced kininogenase activity in isolated aorta: 0.68±0.11 ng kinin/mg/h
[2]; AT2-TG mice, Day 0
  Average blood pressure under administration of angiotensin II: 85±1.8 mmHg
[2]; AT2-TG mice, Day 4
  Average blood pressure under administration of angiotensin II: 84±2.7 mmHg
[2]; AT2-TG mice, Day 7
  Average blood pressure under administration of angiotensin II: 87±2.1 mmHg
[2]; AT2-TG mice, Day 14
  Average blood pressure under administration of angiotensin II: 89±2.6 mmHg
[2]; AT2-TG mice, after 2 weeks, AngII 0.7 mg/day/kg
  blood pressure change: no blood pressure change
[2]; Wild-type mice, Day 0
  Average blood pressure under administration of angiotensin II: 83±2.7 mmHg
[2]; Wild-type mice, Day 4
  Average blood pressure under administration of angiotensin II: 94±2.1 mmHg
[2]; Wild-type mice, Day 7
  Average blood pressure under administration of angiotensin II: 114±2.8 mmHg
[2]; Wild-type mice, Day 14
  Average blood pressure under administration of angiotensin II: 121±3.2 mmHg
[2]; wild-type mice, after 2 weeks, AngII 0.7 mg/day/kg
  increase in average blood pressure: 38 mmHg

## icatibant
[1]; AT2-TG mice
  inhibition of the increase of cGMP production: completely inhibited
kininogenase; AT2-TG mice
  inhibition of the increase of kininogenase activity: completely inhibited
